Laboratory results published in ChEMBL document CHEMBL1201862, “PubChem BioAssay data set” (2004).
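These data come from cells grown in 96-well plates and exposed to compound for 48 hours at five concentrations. The concentration for 50% growth inhibition is given as GI50.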 Active and inactive are the calls of the source. Cut-off read from the data, not from the text of the source: active = GI50 up to about 1.1 µM and inactive = higher.

Experiments:
Test in all cases: inhibition of tumour cell growth, NCI panel, 48 h
SK-MEL-2 = tested on: SK-MEL-2
RXF 393 = tested on: RXF 393
UACC-62 = tested on: UACC-62
HCC 2998 = tested on: HCC 2998
K562 = tested on: K562
RPMI-8226 = tested on: RPMI-8226
CCRF-CEM = tested on: CCRF-CEM
SW-620 = tested on: SW-620
SK-OV-3 = tested on: SK-OV-3
UACC-257 = tested on: UACC-257
NCI-H23 = tested on: NCI-H23
Hs-578T = tested on: Hs-578T
MDA-MB-435 = tested on: MDA-MB-435
LOX IMVI = tested on: LOX IMVI
IGROV-1 = tested on: IGROV-1
HCT-15 = tested on: HCT-15
OVCAR-8 = tested on: OVCAR-8
KM12 = tested on: KM12
SK-MEL-28 = tested on: SK-MEL-28
MCF7 = tested on: MCF7
HT-29 = tested on: HT-29
U-251 = tested on: U-251
OVCAR-4 = tested on: OVCAR-4
COLO 205 = tested on: COLO 205
MDA-N = tested on: MDA-N
HL-60 = tested on: HL-60
TK-10 = tested on: TK-10
T47D = tested on: T47D
M14 = tested on: M14
SN12C = tested on: SN12C
ACHN = tested on: ACHN
CAKI-1 = tested on: CAKI-1
HCT-116 = tested on: HCT-116
A549 = tested on: A549
SF-295 = tested on: SF-295
DU-145 = tested on: DU-145
A498 = tested on: A498
SNB-75 = tested on: SNB-75
Malme-3M = tested on: Malme-3M
NCI-H460 = tested on: NCI-H460
OVCAR-5 = tested on: OVCAR-5
NCI/ADR-RES = tested on: NCI/ADR-RES
SK-MEL-5 = tested on: SK-MEL-5
UO-31 = tested on: UO-31
HOP-92 = tested on: HOP-92
786-0 = tested on: 786-0
MDA-MB-231 = tested on: MDA-MB-231
NCI-H226 = tested on: NCI-H226
EKVX = tested on: EKVX
BT-549 = tested on: BT-549
SNB-19 = tested on: SNB-19
PC-3 = tested on: PC-3
SR = tested on: SR
HOP-62 = tested on: HOP-62
SF-268 = tested on: SF-268
OVCAR-3 = tested on: OVCAR-3
NCI-H522 = tested on: NCI-H522
MOLT-4 = tested on: MOLT-4
SF-539 = tested on: SF-539

Q: Which results are given for `Cn1cnc([N+](=O)[O-])c1SCC(=O)O`?
A: GI50 (SK-MEL-2): > 100 µM (inactive); GI50 (RXF 393): > 100 µM (inactive); GI50 (UACC-62): > 100 µM (inactive); GI50 (HCC 2998): > 100 µM (inactive); GI50 (K562): > 100 µM (inactive); GI50 (RPMI-8226): > 100 µM (inactive); GI50 (CCRF-CEM): > 100 µM (inactive); GI50 (SW-620): > 100 µM (inactive); GI50 (SK-OV-3): > 100 µM (inactive); GI50 (UACC-257): > 100 µM (inactive); GI50 (NCI-H23): > 100 µM (inactive); GI50 (Hs-578T): > 100 µM (inactive); GI50 (MDA-MB-435): > 100 µM (inactive); GI50 (LOX IMVI): > 100 µM (inactive); GI50 (IGROV-1): > 100 µM (inactive); GI50 (HCT-15): > 100 µM; GI50 (OVCAR-8): > 100 µM (inactive); GI50 (KM12): > 100 µM (inactive); GI50 (SK-MEL-28): > 100 µM (inactive); GI50 (MCF7): > 100 µM (inactive); GI50 (HT-29): > 100 µM (inactive); GI50 (U-251): > 100 µM (inactive); GI50 (OVCAR-4): > 100 µM (inactive); GI50 (COLO 205): > 100 µM (inactive); GI50 (MDA-N): > 100 µM (inactive); GI50 (HL-60): > 100 µM (inactive); GI50 (TK-10): > 100 µM (inactive); GI50 (T47D): > 100 µM (inactive); GI50 (M14): > 100 µM (inactive); GI50 (SN12C): > 100 µM (inactive); GI50 (ACHN): > 100 µM (inactive); GI50 (CAKI-1): > 100 µM (inactive); GI50 (HCT-116): > 100 µM (inactive); GI50 (A549): > 100 µM (inactive); GI50 (SF-295): > 100 µM (inactive); GI50 (DU-145): > 100 µM (inactive); GI50 (A498): > 100 µM (inactive); GI50 (SNB-75): > 100 µM (inactive); GI50 (Malme-3M): > 100 µM (inactive); GI50 (NCI-H460): > 100 µM (inactive); GI50 (OVCAR-5): > 100 µM (inactive); GI50 (NCI/ADR-RES): > 100 µM (inactive); GI50 (SK-MEL-5): > 100 µM (inactive); GI50 (UO-31): > 100 µM (inactive); GI50 (HOP-92): > 100 µM (inactive); GI50 (786-0): > 100 µM (inactive); GI50 (MDA-MB-231): > 100 µM (inactive); GI50 (NCI-H226): > 100 µM (inactive); GI50 (EKVX): > 100 µM (inactive); GI50 (BT-549): > 100 µM (inactive); GI50 (SNB-19): > 100 µM (inactive); GI50 (PC-3): > 100 µM (inactive); GI50 (SR): > 100 µM (inactive); GI50 (HOP-62): > 100 µM (inactive); GI50 (SF-268): > 100 µM (inactive); GI50 (OVCAR-3): > 100 µM (inactive); GI50 (NCI-H522): > 100 µM (inactive)

Q: How did the GI50 (SK-MEL-2) turn out when `CN(C)CCCN1c2ccccc2Sc2ccc3ccccc3c21` was run?
A: 5.79 µM (inactive)

Q: What about the GI50 (RXF 393) of the same molecule?
A: 1.65 µM (inactive)

Q: What about the GI50 (UACC-62) of the same molecule?
A: 4.61 µM (inactive)

Q: And the GI50 (HCC 2998)?
A: 1.53 µM (inactive)

Q: And the GI50 (K562)?
A: 1.86 µM (inactive)

Q: What about the GI50 (RPMI-8226) of the same molecule?
A: 2.48 µM (inactive)

Q: What about the GI50 (CCRF-CEM) of the same molecule?
A: 2.23 µM (inactive)

Q: And the GI50 (SW-620)?
A: 8.3 µM (inactive)

Q: And the GI50 (SK-OV-3)?
A: 14.2 µM (inactive)

Q: And the GI50 (UACC-257)?
A: 1.84 µM (inactive)

Q: And the GI50 (NCI-H23)?
A: 14.3 µM (inactive)

Q: And the GI50 (Hs-578T)?
A: 8.73 µM (inactive)

Q: What about the GI50 (MDA-MB-435) of the same molecule?
A: 3.1 µM (inactive)

Q: And the GI50 (LOX IMVI)?
A: 4.91 µM (inactive)

Q: What about the GI50 (IGROV-1) of the same molecule?
A: 8.67 µM (inactive)

Q: And the GI50 (HCT-15)?
A: 6.43 µM

Q: What about the GI50 (MOLT-4) of the same molecule?
A: 2.92 µM (inactive)

Q: And the GI50 (OVCAR-8)?
A: 12.7 µM (inactive)

Q: And the GI50 (KM12)?
A: 6.58 µM (inactive)

Q: What about the GI50 (SK-MEL-28) of the same molecule?
A: 2.08 µM (inactive)

Q: What about the GI50 (SF-539) of the same molecule?
A: 16.1 µM (inactive)

Q: What about the GI50 (MCF7) of the same molecule?
A: 5.75 µM (inactive)

Q: And the GI50 (HT-29)?
A: 3.52 µM (inactive)

Q: And the GI50 (U-251)?
A: 7.23 µM (inactive)

Q: And the GI50 (OVCAR-4)?
A: 5.35 µM (inactive)

Q: And the GI50 (COLO 205)?
A: 4.56 µM (inactive)

Q: What about the GI50 (MDA-N) of the same molecule?
A: 4.12 µM (inactive)

Q: And the GI50 (HL-60)?
A: < 0.01 µM (active)

Q: And the GI50 (TK-10)?
A: 4.45 µM (inactive)

Q: What about the GI50 (T47D) of the same molecule?
A: 2.05 µM (inactive)

Q: And the GI50 (M14)?
A: 1.79 µM (inactive)

Q: And the GI50 (SN12C)?
A: 9.06 µM (inactive)

Q: What about the GI50 (ACHN) of the same molecule?
A: 8.3 µM (inactive)

Q: And the GI50 (CAKI-1)?
A: 5.13 µM (inactive)

Q: What about the GI50 (HCT-116) of the same molecule?
A: 10.2 µM (inactive)

Q: What about the GI50 (A549) of the same molecule?
A: 13.2 µM (inactive)

Q: And the GI50 (SF-295)?
A: 13.2 µM (inactive)

Q: And the GI50 (DU-145)?
A: 12.8 µM (inactive)

Q: And the GI50 (A498)?
A: 5.71 µM (inactive)

Q: What about the GI50 (Malme-3M) of the same molecule?
A: 6.49 µM (inactive)

Q: What about the GI50 (NCI-H460) of the same molecule?
A: 2.79 µM (inactive)

Q: What about the GI50 (OVCAR-5) of the same molecule?
A: 11.3 µM (inactive)

Q: And the GI50 (NCI/ADR-RES)?
A: 7.82 µM (inactive)

Q: What about the GI50 (SK-MEL-5) of the same molecule?
A: 4.17 µM (inactive)

Q: What about the GI50 (UO-31) of the same molecule?
A: 4.36 µM (inactive)

Q: And the GI50 (HOP-92)?
A: 5.52 µM (inactive)

Q: What about the GI50 (786-0) of the same molecule?
A: 11 µM (inactive)

Q: What about the GI50 (MDA-MB-231) of the same molecule?
A: 3.15 µM (inactive)

Q: And the GI50 (NCI-H226)?
A: 6.58 µM (inactive)

Q: What about the GI50 (EKVX) of the same molecule?
A: 10.7 µM (inactive)

Q: What about the GI50 (BT-549) of the same molecule?
A: 13.1 µM (inactive)

Q: What about the GI50 (SNB-19) of the same molecule?
A: 14.8 µM (inactive)

Q: And the GI50 (PC-3)?
A: 3.75 µM (inactive)

Q: And the GI50 (SR)?
A: 1.09 µM (active)

Q: And the GI50 (HOP-62)?
A: 12 µM (inactive)

Q: And the GI50 (SF-268)?
A: 9.06 µM (inactive)

Q: What about the GI50 (OVCAR-3) of the same molecule?
A: 8.49 µM (inactive)

Q: And the GI50 (NCI-H522)?
A: 7.94 µM (inactive)
